In article PMC12420824, “Discovery of a selective alpha-kinase 1 inhibitor for the rare genetic disease ROSAH syndrome” (Nature Communications, 2025):

How the values were obtained:
TYK2 = TYK2 (Homo sapiens, UniProt P29597); test: HotSpot kinase assay; details: read-out: % Enzyme Activity (relative to DMSO control), 10 uM
Source text: (§1) Additionally, a 10-dose dilution series of staurosporine and other enzyme-appropriate compounds were included as positive control inhibitors.

LYN B = LYN B (Homo sapiens, UniProt P07948); test: HotSpot kinase assay; details: read-out: % Enzyme Activity (relative to DMSO control), 10 uM
MAPKAPK5/PRAK = MAPKAPK5/PRAK (Homo sapiens, UniProt Q8IW41); test: HotSpot kinase assay; details: read-out: % Enzyme Activity (relative to DMSO control), 10 uM
AMPK (A1/B2/G2) = AMPK (A1/B2/G2) (Homo sapiens, UniProt Q13131); test: HotSpot kinase assay; details: read-out: % Enzyme Activity (relative to DMSO control), 10 uM
Source text: as §1

P38d/MAPK13 = P38d/MAPK13 (Homo sapiens, UniProt O15264); test: HotSpot kinase assay; details: read-out: % Enzyme Activity (relative to DMSO control), 10 uM
Source text: as §1

DYRK1/DYRK1A = DYRK1/DYRK1A (Homo sapiens, UniProt Q13627); test: HotSpot kinase assay; details: read-out: % Enzyme Activity (relative to DMSO control), 10 uM
CAMK4 = CAMK4 (Homo sapiens, UniProt Q16566); test: HotSpot kinase assay; details: read-out: % Enzyme Activity (relative to DMSO control), 10 uM
Source text: as §1

PAK4 = PAK4 (Homo sapiens, UniProt O96013); test: HotSpot kinase assay; details: read-out: % Enzyme Activity (relative to DMSO control), 10 uM
Source text: as §1

c-Kit = c-Kit (Homo sapiens, UniProt P10721); test: HotSpot kinase assay; details: read-out: % Enzyme Activity (relative to DMSO control), 10 uM
Source text: as §1

CK1a1L = CK1a1L (Homo sapiens, UniProt Q8N752); test: HotSpot kinase assay; details: read-out: % Enzyme Activity (relative to DMSO control), 10 uM
BMX/ETK = BMX/ETK (Homo sapiens, UniProt P51813); test: HotSpot kinase assay; details: read-out: % Enzyme Activity (relative to DMSO control), 10 uM
BMX/ETK, sequence (P51813 whole entry): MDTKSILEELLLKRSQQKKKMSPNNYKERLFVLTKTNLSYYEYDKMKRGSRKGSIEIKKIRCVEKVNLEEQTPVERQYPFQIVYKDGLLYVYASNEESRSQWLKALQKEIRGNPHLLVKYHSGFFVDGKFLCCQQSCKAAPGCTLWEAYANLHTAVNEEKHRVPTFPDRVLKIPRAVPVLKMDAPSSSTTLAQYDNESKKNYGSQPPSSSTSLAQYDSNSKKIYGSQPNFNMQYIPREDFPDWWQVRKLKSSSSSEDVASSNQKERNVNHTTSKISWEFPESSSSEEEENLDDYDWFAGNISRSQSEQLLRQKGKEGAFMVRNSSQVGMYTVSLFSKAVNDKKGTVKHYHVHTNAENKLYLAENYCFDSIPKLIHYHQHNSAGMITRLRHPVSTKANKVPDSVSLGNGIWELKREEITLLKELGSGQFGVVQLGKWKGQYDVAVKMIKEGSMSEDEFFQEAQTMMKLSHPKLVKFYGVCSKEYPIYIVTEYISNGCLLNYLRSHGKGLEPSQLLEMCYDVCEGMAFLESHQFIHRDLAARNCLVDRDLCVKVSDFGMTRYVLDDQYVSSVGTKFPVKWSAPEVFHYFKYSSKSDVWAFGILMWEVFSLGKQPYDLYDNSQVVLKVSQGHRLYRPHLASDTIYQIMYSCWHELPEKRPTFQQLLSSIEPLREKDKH

GCK/MAP4K2 = GCK/MAP4K2 (Homo sapiens, UniProt Q12851); test: HotSpot kinase assay; details: read-out: % Enzyme Activity (relative to DMSO control), 10 uM
CDK9/cyclin T1 = CDK9/cyclin T1 (Homo sapiens, UniProt P50750); test: HotSpot kinase assay; details: read-out: % Enzyme Activity (relative to DMSO control), 10 uM
LCK2/ICK = LCK2/ICK (Homo sapiens, UniProt Q9UPZ9); test: HotSpot kinase assay; details: read-out: % Enzyme Activity (relative to DMSO control), 10 uM
LCK2/ICK, sequence (Q9UPZ9 whole entry): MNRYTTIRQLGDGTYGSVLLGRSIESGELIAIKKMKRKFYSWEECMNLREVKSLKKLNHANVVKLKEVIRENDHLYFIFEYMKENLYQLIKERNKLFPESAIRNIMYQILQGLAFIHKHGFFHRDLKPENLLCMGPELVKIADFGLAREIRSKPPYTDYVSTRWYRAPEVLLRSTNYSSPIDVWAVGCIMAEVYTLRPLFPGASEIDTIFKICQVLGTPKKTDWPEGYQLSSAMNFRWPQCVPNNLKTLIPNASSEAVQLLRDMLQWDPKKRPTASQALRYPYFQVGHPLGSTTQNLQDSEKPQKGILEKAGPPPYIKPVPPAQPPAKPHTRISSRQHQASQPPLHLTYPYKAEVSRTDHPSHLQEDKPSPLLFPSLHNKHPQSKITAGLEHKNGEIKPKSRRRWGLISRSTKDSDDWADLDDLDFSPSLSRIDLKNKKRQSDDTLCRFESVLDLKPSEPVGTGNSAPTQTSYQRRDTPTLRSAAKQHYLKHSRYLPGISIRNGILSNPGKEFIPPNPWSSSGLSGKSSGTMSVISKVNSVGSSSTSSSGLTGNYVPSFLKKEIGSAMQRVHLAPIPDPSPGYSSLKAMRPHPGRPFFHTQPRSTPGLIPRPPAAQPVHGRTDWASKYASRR
Source text: as §1

ALK = ALK (Homo sapiens, UniProt Q9UM73); test: HotSpot kinase assay; details: read-out: % Enzyme Activity (relative to DMSO control), 10 uM
ALK, sequence (Q9UM73 19-1620): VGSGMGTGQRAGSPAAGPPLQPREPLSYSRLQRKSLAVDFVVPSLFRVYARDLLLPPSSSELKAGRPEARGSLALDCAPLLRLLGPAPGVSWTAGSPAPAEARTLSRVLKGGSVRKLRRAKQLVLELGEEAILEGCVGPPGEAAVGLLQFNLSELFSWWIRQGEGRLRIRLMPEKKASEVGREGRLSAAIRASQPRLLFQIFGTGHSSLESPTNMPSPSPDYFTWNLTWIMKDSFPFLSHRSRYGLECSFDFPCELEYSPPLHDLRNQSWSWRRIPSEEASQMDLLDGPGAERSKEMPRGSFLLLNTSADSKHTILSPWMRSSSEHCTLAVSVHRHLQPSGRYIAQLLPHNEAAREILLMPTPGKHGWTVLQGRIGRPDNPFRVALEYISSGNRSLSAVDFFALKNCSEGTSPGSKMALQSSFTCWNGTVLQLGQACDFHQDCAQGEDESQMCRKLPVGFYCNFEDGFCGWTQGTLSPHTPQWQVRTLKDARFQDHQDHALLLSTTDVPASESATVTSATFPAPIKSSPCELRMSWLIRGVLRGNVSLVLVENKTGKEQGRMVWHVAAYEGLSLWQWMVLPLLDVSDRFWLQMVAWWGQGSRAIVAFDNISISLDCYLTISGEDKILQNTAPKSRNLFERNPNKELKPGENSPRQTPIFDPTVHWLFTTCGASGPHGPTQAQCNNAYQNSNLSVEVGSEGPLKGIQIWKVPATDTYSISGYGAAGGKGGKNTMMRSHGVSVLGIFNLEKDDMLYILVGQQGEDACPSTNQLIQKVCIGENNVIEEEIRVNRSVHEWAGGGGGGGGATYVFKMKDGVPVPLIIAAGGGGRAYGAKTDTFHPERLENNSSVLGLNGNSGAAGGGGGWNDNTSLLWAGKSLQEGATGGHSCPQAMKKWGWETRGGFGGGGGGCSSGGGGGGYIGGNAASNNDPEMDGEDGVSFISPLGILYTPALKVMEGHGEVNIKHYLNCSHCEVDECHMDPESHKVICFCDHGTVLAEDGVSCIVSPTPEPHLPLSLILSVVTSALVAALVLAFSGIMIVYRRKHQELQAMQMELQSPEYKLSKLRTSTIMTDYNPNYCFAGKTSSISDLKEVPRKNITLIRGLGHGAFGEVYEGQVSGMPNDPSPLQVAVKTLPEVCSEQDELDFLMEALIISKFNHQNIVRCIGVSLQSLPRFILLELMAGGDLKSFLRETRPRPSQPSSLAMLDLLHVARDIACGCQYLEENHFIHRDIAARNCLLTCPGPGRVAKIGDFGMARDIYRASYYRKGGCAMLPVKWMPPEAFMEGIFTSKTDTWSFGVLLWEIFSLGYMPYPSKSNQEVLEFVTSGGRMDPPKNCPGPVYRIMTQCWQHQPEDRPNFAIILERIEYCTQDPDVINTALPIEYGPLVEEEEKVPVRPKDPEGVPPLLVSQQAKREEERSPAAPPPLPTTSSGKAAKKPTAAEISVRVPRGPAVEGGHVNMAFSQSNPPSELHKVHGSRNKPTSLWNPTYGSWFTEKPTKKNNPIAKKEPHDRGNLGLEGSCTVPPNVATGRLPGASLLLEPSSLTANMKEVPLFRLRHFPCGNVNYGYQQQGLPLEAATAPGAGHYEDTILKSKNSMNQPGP
Source text: as §1

ARK5/NUAK1 = ARK5/NUAK1 (Homo sapiens, UniProt O60285); test: HotSpot kinase assay; details: read-out: % Enzyme Activity (relative to DMSO control), 10 uM
ARK5/NUAK1, sequence (O60285 whole entry): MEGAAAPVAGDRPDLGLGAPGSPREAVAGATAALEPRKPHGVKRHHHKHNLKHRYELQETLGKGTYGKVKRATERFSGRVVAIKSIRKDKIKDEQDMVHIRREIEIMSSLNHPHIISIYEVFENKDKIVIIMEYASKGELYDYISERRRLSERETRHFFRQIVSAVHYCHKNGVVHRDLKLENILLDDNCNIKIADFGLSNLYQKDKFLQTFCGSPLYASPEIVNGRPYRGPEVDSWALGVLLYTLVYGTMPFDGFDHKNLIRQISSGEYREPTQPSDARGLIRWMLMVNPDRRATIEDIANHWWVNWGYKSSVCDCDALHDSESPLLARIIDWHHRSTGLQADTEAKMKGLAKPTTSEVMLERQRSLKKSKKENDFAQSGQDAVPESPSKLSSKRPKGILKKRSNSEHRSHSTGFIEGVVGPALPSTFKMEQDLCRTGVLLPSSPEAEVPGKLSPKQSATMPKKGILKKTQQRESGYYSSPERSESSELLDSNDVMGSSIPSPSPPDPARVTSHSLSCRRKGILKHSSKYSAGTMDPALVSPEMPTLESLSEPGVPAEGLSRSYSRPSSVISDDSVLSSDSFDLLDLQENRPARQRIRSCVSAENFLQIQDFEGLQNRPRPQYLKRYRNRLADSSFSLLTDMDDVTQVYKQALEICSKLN
Source text: as §1

TYK1/LTK = TYK1/LTK (Homo sapiens, UniProt P29376); test: HotSpot kinase assay; details: read-out: % Enzyme Activity (relative to DMSO control), 10 uM
GSK3b = GSK3b (Homo sapiens, UniProt P49841); test: HotSpot kinase assay; details: read-out: % Enzyme Activity (relative to DMSO control), 10 uM
GSK3b, sequence (P49841 whole entry): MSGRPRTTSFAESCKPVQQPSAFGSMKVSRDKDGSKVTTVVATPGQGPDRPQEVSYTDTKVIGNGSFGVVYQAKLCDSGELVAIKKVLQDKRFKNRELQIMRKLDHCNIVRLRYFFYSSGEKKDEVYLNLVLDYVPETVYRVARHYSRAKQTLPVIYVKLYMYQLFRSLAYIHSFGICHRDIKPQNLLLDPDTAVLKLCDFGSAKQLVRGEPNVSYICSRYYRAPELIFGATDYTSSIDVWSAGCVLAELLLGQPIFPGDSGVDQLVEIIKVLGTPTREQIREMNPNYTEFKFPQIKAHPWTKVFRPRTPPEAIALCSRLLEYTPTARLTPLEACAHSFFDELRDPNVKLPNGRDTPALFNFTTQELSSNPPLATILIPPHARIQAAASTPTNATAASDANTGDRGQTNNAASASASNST
Source text: as §1

IRAK4 = IRAK4 (Homo sapiens, UniProt Q9NWZ3); test: HotSpot kinase assay; details: read-out: % Enzyme Activity (relative to DMSO control), 10 uM
Source text: as §1

CDK4/cyclin D1 = CDK4/cyclin D1 (Homo sapiens, UniProt P11802); test: HotSpot kinase assay; details: read-out: % Enzyme Activity (relative to DMSO control), 10 uM
CDK4/cyclin D1, sequence (P11802 whole entry): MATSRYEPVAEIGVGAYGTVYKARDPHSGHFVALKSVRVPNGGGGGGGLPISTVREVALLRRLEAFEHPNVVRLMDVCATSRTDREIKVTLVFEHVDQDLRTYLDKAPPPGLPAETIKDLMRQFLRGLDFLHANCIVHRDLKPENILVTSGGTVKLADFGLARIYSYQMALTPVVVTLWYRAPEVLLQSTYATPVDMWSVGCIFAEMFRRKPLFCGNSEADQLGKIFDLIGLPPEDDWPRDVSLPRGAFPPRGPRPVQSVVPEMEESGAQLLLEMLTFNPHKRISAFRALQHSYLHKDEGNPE
CDK4/cyclin D1, sequence (P24385 whole entry partner): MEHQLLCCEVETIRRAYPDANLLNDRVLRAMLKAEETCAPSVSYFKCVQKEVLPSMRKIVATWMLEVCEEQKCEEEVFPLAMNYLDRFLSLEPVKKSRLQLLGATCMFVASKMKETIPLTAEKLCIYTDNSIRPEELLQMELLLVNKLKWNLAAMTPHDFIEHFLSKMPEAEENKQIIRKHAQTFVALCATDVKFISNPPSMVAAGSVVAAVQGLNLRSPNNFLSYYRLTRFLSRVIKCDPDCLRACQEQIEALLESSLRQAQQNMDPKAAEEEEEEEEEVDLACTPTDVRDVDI
Source text: as §1

BTK = BTK (Homo sapiens, UniProt Q06187); test: HotSpot kinase assay; details: read-out: % Enzyme Activity (relative to DMSO control), 10 uM
Source text: as §1

CK1g2 = CK1g2 (Homo sapiens, UniProt P78368); test: HotSpot kinase assay; details: read-out: % Enzyme Activity (relative to DMSO control), 10 uM
JAK1 = JAK1 (Homo sapiens, UniProt P23458); test: HotSpot kinase assay; details: read-out: % Enzyme Activity (relative to DMSO control), 10 uM
Source text: as §1

PASK = PASK (Homo sapiens, UniProt Q96RG2); test: HotSpot kinase assay; details: read-out: % Enzyme Activity (relative to DMSO control), 10 uM
Source text: as §1

TTBK1 = TTBK1 (Homo sapiens, UniProt Q5TCY1); test: HotSpot kinase assay; details: read-out: % Enzyme Activity (relative to DMSO control), 10 uM
Source text: as §1

EPHB2 = EPHB2 (Homo sapiens, UniProt P29323); test: HotSpot kinase assay; details: read-out: % Enzyme Activity (relative to DMSO control), 10 uM
Source text: as §1

MNK2 = MNK2 (Homo sapiens, UniProt Q9HBH9); test: HotSpot kinase assay; details: read-out: % Enzyme Activity (relative to DMSO control), 10 uM
AMPK(A2/B2/G2) = AMPK(A2/B2/G2) (Homo sapiens, UniProt P54646); test: HotSpot kinase assay; details: read-out: % Enzyme Activity (relative to DMSO control), 10 uM
Source text: as §1

DCAMKL2 = DCAMKL2 (Homo sapiens, UniProt Q8N568); test: HotSpot kinase assay; details: read-out: % Enzyme Activity (relative to DMSO control), 10 uM
WEE1 = WEE1 (Homo sapiens, UniProt P30291); test: HotSpot kinase assay; details: read-out: % Enzyme Activity (relative to DMSO control), 10 uM
Source text: as §1

KSR1 = KSR1 (Homo sapiens, UniProt Q8IVT5); test: HotSpot kinase assay; details: read-out: % Enzyme Activity (relative to DMSO control), 10 uM
Source text: as §1

Haspin = Haspin (Homo sapiens, UniProt Q8TF76); test: HotSpot kinase assay; details: read-out: % Enzyme Activity (relative to DMSO control), 10 uM
[1] = 28 day GLP toxicology study; format: in vivo; details: rats
p70S6Kb/RPS6KB2 = p70S6Kb/RPS6KB2 (Homo sapiens, UniProt Q9UBS0); test: HotSpot kinase assay; details: read-out: % Enzyme Activity (relative to DMSO control), 10 uM
AMPK(A1/B1/G3) = AMPK(A1/B1/G3) (Homo sapiens, UniProt Q13131); test: HotSpot kinase assay; details: read-out: % Enzyme Activity (relative to DMSO control), 10 uM
Source text: as §1

VRK1 = VRK1 (Homo sapiens, UniProt Q99986); test: HotSpot kinase assay; details: read-out: % Enzyme Activity (relative to DMSO control), 10 uM
Source text: as §1

CDK4/cyclin D3 = CDK4/cyclin D3 (Homo sapiens, UniProt P11802); test: HotSpot kinase assay; details: read-out: % Enzyme Activity (relative to DMSO control), 10 uM
CDK4/cyclin D3, sequence (P11802 whole entry): as the sequence (P11802 whole entry) above
CDK4/cyclin D3, sequence (P30281 whole entry partner): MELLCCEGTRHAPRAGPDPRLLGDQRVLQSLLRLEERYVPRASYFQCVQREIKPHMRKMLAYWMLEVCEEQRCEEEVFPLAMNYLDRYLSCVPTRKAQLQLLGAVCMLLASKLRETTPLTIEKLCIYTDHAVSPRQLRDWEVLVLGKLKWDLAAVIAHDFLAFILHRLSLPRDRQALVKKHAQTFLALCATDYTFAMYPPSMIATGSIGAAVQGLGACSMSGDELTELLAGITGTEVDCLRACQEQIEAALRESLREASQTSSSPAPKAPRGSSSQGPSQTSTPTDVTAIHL
Source text: as §1

MEKK6 = MEKK6 (Homo sapiens, UniProt O95382); test: HotSpot kinase assay; details: read-out: % Enzyme Activity (relative to DMSO control), 10 uM
Source text: as §1

CK1d = CK1d (Homo sapiens, UniProt P48730); test: HotSpot kinase assay; details: read-out: % Enzyme Activity (relative to DMSO control), 10 uM
CDK2/CYCLIN E = CDK2/CYCLIN E (Homo sapiens, UniProt P24941); test: HotSpot kinase assay; details: read-out: % Enzyme Activity (relative to DMSO control), 10 uM
Source text: as §1

C#C[C@@](C)(c1ccc(Cl)cc1)c1csc(NC(=O)c2c(F)cc(N3CCNCC3)cc2F)n1 (stereo in doubt) [DF-003]
remaining activity at 10 µM (TYK2): 82.7% | remaining activity at 10 µM (LYN B): 143% | remaining activity at 10 µM (MAPKAPK5/PRAK): 93% | remaining activity at 10 µM (AMPK (A1/B2/G2)): 113% | remaining activity at 10 µM (P38d/MAPK13): 104% | remaining activity at 10 µM (DYRK1/DYRK1A): 98.5% | remaining activity at 10 µM (CAMK4): 34.5% | remaining activity at 10 µM (PAK4): 102% | remaining activity at 10 µM (c-Kit): 67.6% | remaining activity at 10 µM (CK1a1L): 97.2% | remaining activity at 10 µM (BMX/ETK): 87.5% | remaining activity at 10 µM (GCK/MAP4K2): 84% | remaining activity at 10 µM (CDK9/cyclin T1): 116% | remaining activity at 10 µM (LCK2/ICK): 86.9% | remaining activity at 10 µM (ALK): 115% | remaining activity at 10 µM (ARK5/NUAK1): 93.2% | remaining activity at 10 µM (TYK1/LTK): 105% | remaining activity at 10 µM (GSK3b): 93.3% | remaining activity at 10 µM (IRAK4): 95.5% | remaining activity at 10 µM (CDK4/cyclin D1): 91.3% | remaining activity at 10 µM (BTK): 76.8% | remaining activity at 10 µM (CK1g2): 121% | remaining activity at 10 µM (JAK1): 84.6% | remaining activity at 10 µM (PASK): 56.5% | remaining activity at 10 µM (TTBK1): 84.2% | remaining activity at 10 µM (EPHB2): 101% | remaining activity at 10 µM (MNK2): 90.7% | remaining activity at 10 µM (AMPK(A2/B2/G2)): 83% | remaining activity at 10 µM (DCAMKL2): 68.8% | remaining activity at 10 µM (WEE1): 125% | remaining activity at 10 µM (KSR1): 91.5% | remaining activity at 10 µM (Haspin): 85.7% | general immunosuppression [1]: no general immunosuppression was observed | remaining activity at 10 µM (p70S6Kb/RPS6KB2): 58.1% | remaining activity at 10 µM (AMPK(A1/B1/G3)): 92.7% | remaining activity at 10 µM (VRK1): 117% | remaining activity at 10 µM (CDK4/cyclin D3): 91.1% | remaining activity at 10 µM (MEKK6): 73.4% | remaining activity at 10 µM (CK1d): 81.5% | remaining activity at 10 µM (CDK2/CYCLIN E): 90.1%
